# Data as given in publication PMC11085682, “Identification of Novel Peptides in Distillers’ Grains as Antioxidants, α-Glucosidase Inhibitors, and Insulin Sensitizers: In Silico and In Vitro Evaluation” (Nutrients, 2024).
# Where two headings read alike, the source gives them in different places. Where a SMILES comes first, the peptide text is derived from it. Where no end group is shown, it is not given here.
# Tests used:
# [1] = biological target: α-glucosidase (Saccharomyces cerevisiae, UniProt P53341); assay: α-glucosidase inhibitory effect (pNPG); type: biochemical; details: synthetic peptides; PBS pH 6.8, 37 °C, 15 min pre-incubation, 30 min with pNPG, absorbance 405 nm; median (25%, 75% quartiles), at least three experiments; read-out: IC50, α-glucosidase inhibition
# Chain of α-glucosidase (Saccharomyces cerevisiae, UniProt P53341) (P53341 whole entry): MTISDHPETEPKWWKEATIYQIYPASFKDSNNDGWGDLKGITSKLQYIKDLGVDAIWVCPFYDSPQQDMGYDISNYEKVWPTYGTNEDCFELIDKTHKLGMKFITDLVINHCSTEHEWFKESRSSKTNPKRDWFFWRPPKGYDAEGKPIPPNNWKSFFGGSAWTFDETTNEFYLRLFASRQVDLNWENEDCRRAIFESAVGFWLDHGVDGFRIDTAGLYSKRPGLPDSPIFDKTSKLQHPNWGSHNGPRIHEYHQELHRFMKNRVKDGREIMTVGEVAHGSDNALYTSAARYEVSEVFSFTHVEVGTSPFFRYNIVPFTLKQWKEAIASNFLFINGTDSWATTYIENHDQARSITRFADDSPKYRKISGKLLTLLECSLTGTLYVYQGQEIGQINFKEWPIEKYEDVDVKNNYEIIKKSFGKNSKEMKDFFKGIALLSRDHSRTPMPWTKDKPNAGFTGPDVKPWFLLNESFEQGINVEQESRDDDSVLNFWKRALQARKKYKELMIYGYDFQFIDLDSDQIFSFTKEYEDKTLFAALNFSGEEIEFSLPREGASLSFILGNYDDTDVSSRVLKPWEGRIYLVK
# Protocol: Distillers’ grains were generously supplied by the Suzhou Bridge Wine & Spirits Co. (Suzhou, China). Peptides YPLPR, AFEPLR, and NDPF (purity ≥ 98%) were composed by All Peptide Biotechnology Co., Ltd. (Hangzhou, China). Dulbecco’s Modified Eagle Medium (DMEM) medium, embracing 10.0% fetal bovine serum (FBS) and 1.0 mol/L phosphate buffer (PBS) was bought from Gibco (Life Technologies, Inc., Carlsbad, CA, USA). Alkaline protease (2.4 U/g), penicillin-streptomycin (100.0 U/mL penicillin-100.0 […] streptomycin), 3-(4,5-dimethylthiazol-2)-2,5-diphenyltetrazolium bromide (MTT) powder, 2′,7′-dichlorofluorescence yellow diacetate (DCFH-DA), and trypsin solution were purchased from Solarbio (Beijing Solarbio Science and Technology Co., Ltd., Beijing, China). The HepG2 cell line was acquired from the Kunming Institute of Animal Science, Chinese Academy of Sciences (Kunming, China). Rosiglitazone, insulin, ABTS, DPPH, α-glucosidase derived from Saccharomyces cerevisiae (type I, protein content of at least 30.0 units per milligram), and p-nitrobenzene α-D-glucopyranoside (pNPG, with a minimum purity of 99.0%) were purchased from Sigma-Aldrich (located in Shanghai, China). The glucose kit was purchased from Nanjing Jiancheng Co. (Nanjinng, China). […]
# The inhibitory effect on α-glucosidase activity of the protein hydrolysates from distillers’ grains or three selected peptides was assessed following the methodology outlined by Zhang et al. (2018) with slight modifications, and the concrete method is shown in the Supplementary Materials. […]
# The inhibitory effect on α-glucosidase activity of the protein hydrolysates from distillersʹ grains or three selected peptides was assessed following the methodology outlined by Zhang et al. (2018) with slight modifications. […]
# The absorbance of the resulting reaction mixture was measured at a wavelength […]
# of 405 nm using an enzyme-labeled instrument. […] In this formula, ʺAʺ represents the absorbance value. […]
# The antioxidant properties of vinasse hydrolysates or three screening peptides were evaluated by DPPH and ABTS free radical scavenging […]
# [2] = system: HepG2 cells; assay: MTT cytotoxicity of samples and insulin in HepG2 cells
# Excerpt: (§1) The MTT method was adopted to assess the impact of samples and insulin on cell viability, helping determine the optimal concentrations of insulin and the samples. The experimental protocol for improving insulin resistance followed previous methods. Details are provided in the Supplementary Materials. In this experiment, various groups were established, incorporating the blank control group (K), model group (M), peptide sample groups, and the positive control group (treated with rosiglitazone).
# (§2) […] of the main pathogenic mechanisms of type 2 diabetes mellitus, and the liver is an important site for insulin to function. […] As the cellular insulin resistance condition arises, the utilization of glucose by the cells decreases, and the consumption of glucose decreases. Therefore, insulin resistance is usually expressed by the consumption of glucose in studies. Using the MTT method, this study explored the effect of different concentrations of insulin on cellular glucose consumption after 24 h of action with HepG2 cells.
# [3] = system: HepG2 cells; assay: H2O2 effect on cell viability (cell damage model); type: cell-based, human; details: H2O2 1.2 mmol/L; median (25%, 75% quartiles), n = 4
# Excerpt: Excessive ROS may attack normal cells or biological macromolecules and undergo oxidative stress, causing severe damage to cellular structures, which causes many diabetic complications and chronic diseases. Accordingly, in this study, the scavenging activities of ABTS and DPPH radicals of bioactive peptides were not only investigated by in vitro experiments, but their antioxidant activity was also further investigated at the cellular level. The cell damage rate of the H2O2-induced cell damage model was generally around 50%. […] When the concentration of H2O2 was 1.2 mmol/L, the cell viability rate was 56.38 (50.33, 68.00) %, so the concentration of H2O2 of 1.2 mmol/L established the cell damage model in this study. […] Consistent with 3.6, YPLPR, AFEPLR, and NDPF were used at 1.0 mmol/L for subsequent experiments.
# [4] = system: HepG2 cells; assay: H2O2-induced intracellular ROS scavenging in HepG2 cells (DCFH-DA, flow cytometry); type: cell-based, human; details: VC 10.0 µmol/L 24 h, then 1.2 mmol/L H2O2 seven hours, median (25%, 75% quartiles), n = 4, model M 139.46 %, blank K 101 %
# Protocol: According to Liu et al. (2020), the H2O2-induced scavenging activity of reactive oxygen species was evaluated. In this experiment, various groups were established, including the blank, sample, positive control, and model groups. Refer to the Supplementary Materials for specific information. […]
# and NDPF concentrations were 1.0 mmol/L, and the positive control rosiglitazone concentration was 20.0 µmol/L. At the end of the incubation, the glucose content in the culture medium was measured using the glucose oxidase-peroxidase method kit by Nanjing Jiancheng Biological Co., Ltd., and the glucose content was calibrated by measuring the cell activity using the MTT […]
# 7. Evaluation of scavenging capacity against intracellular ROS
# HepG2 cells (2.0 mL/well, 1×10^4 cells/well) were inoculated in 6-well plate and cultured overnight. VC (10.0 µmol/L) or peptides YPLPR, AFEPLR, and NDPF (1.0 mmol/L) were added to each well, and the cells were incubated for an additional 24 hours. Following the incubation, the culture medium was aspirated, and the cells were washed thoroughly with PBS twice. Subsequently, cells in all experimental groups, except for the control group, were exposed to 1.2 mmol/L H2O2 for seven hours. […] After incubation, the cells were rinsed twice with culture medium devoid of FBS and analyzed using a Millipore flow cytometer (Guava easy Cyte 6-2L, Billerica, MA) within 30 minutes.
# [5] = system: HepG2 cells; assay: Glucose consumption of insulin-resistant HepG2 cells; type: cell-based, human; details: 20.0 µmol/L positive control, 24 h, after 25.0 µmol/L insulin 24 h; median (25%, 75% quartiles), n = 6; model group M 6.08 (5.80, 6.81) mmol/L
# Excerpt: as §1, §2
# [6] = system: α-glucosidase; details: cited from earlier work; for α-glucosidase activity inhibition: peptides from Spanish dry-cured ham
# Excerpt: Since these peptides have small molecular weights, they are more likely to be absorbed intact by the gastrointestinal tract after oral ingestion, thereby exerting systemic or local effects. Consequently, the study of bioactive peptides has progressively emerged as a prominent research area in recent years. Numerous studies have dem ... || α-glucosidase is a membrane-associated enzyme. Inhibition of α-glucosidase activity can reduce carbohydrate hydrolysis, thus reducing sugar absorption and effectively controlling diabetes.. […] In the study on rice wine peptides, the α-glucosidase inhi ... || Due to the fact that α-glucosidase is a more important and directly regulated target in the treatment of diabetes, the potential inhibitory activity of α-glucosidase was used as the main condition of inquiry for further analysis. […] Therefore, this peptide was selected as a positive control to facilitate the analysis of the current study, and its affinity grading after molecular docking with α-glucosidase was −9.1 kcal/mol. Four peptides, YPLPR, AFEPLR, NDPF, and WN ... || (+ 1 further places)
# [7] = set-up: method as in doi:10.1016/j.jff.2016.08.021; details: at different concentrations (5–150 mg/mL); cited from earlier work
# [8] = previously screened from rice wine peptides; no reference number printed in the sentence; read-out: IC50, ABTS radical scavenging capacity; cited from earlier work
# [9] = previously screened from rice wine peptides; no reference number printed in the sentence; read-out: IC50, DPPH radical scavenging capacity; cited from earlier work
# [10] = system: HepG2 cells; details: cited from earlier work; for Glucose consumption in HepG2 cells compared to the model group: walnut-derived peptides; for Insulin resistance in HepG2 cells exposed to high glucose: from goat milk casein hydrolysate
# Excerpt: In this study, the effect of YPLPR, AFEPLR, and NDPF on the glucose consumption of HepG2 cells in an insulin resistance state was investigated. […] The glucose consumption of peptides YPLPR, AFEPLR, and NDPF were 9.56 (9.37, 9.83), 10.56 ...
# [11] = system: HepG2 cells; assay: Effect of insulin concentration on glucose consumption of HepG2 cells; type: cell-based, human; details: insulin 25.0 µmol/L, 24 h
# Excerpt: Details are provided in the Supplementary Materials.
# [12] = at 1.0 mmol/mL (so in the source)
# [13] = peptides from malt, read-out: IC50, α-glucosidase inhibitory activity
# [14] = peptides from rice wine, read-out: IC50, α-glucosidase depressant activity
compound,measurement,setting,value
NC(=O)C[C@H](N)C(=O)N[C@@H](CC(=O)O)C(=O)N1CCC[C@H]1C(=O)N[C@@H](Cc1ccccc1)C(=O)O [NDPF] (H-NDPF-OH),IC50,[1],6.24 mM
same,Cytotoxicity (MTT),[2]; [12],no cytotoxicity
OO [Peptide H2O2],Cell viability rate,[3],"56.38 (50.33, 68.00) %"
O=C1O[C@H]([C@@H](O)CO)C(O)=C1O [VC],Relative intracellular ROS content,[4],"92.03 (90.83, 98.11) %"
CN(CCOc1ccc(CC2SC(=O)NC2=O)cc1)c1ccccn1 (stereo not drawn) [rosiglitazone],Glucose consumption,[5],"9.09 (8.29, 9.23) mmol/L"
AEEEYPDL [peptide from Spanish dry-cured ham],α-glucosidase activity inhibition,[6],effectively inhibited α-glucosidase activity
AFEPLR [AFEPLR],IC50,[1],8.69 mM
same,Cytotoxicity (MTT),[2]; [12],no cytotoxicity
AGGFR [peptide from malt],IC50,[6]; [13],8.66 ± 0.33 mM
AVPYPQ [peptide identified in the research of Pepe et al. (2016)],antioxidant activity,[7],showed antioxidant activity
EAMAPK [peptide identified in the research of Pepe et al. (2016)],antioxidant activity,[7],showed antioxidant activity
FTYPR [peptide previously screened from rice wine peptides by molecular simulation],IC50,[6]; [14],3.57 mM
same,IC50,[8],2.64 mM
same,IC50,[9],6.09 mM
LDLQR [peptide from malt],IC50,[6]; [13],8.59 ± 0.25 mM
LDNFR [peptide from malt],IC50,[6]; [13],9.21 ± 0.22 mM
LGVGG [peptide from Spanish dry-cured ham],α-glucosidase activity inhibition,[6],effectively inhibited α-glucosidase activity
LRYL [walnut-derived peptide],Glucose consumption in HepG2 cells compared to the model group,[10],increased glucose consumption
LVRL [walnut-derived peptide],Glucose consumption in HepG2 cells compared to the model group,[10],increased glucose consumption
NPWDQVKR [peptide extracted from goat milk casein hydrolysate],Insulin resistance in HepG2 cells exposed to high glucose,[10],improvement in insulin resistance
QEPVLGPVRGPFP [peptide extracted from goat milk casein hydrolysate],Insulin resistance in HepG2 cells exposed to high glucose,[10],improvement in insulin resistance
QFTPR [peptide from previous studies on rice wine],IC50,[6]; [14],9.18 mM
SDIPNPIGSE [peptide extracted from goat milk casein hydrolysate],Insulin resistance in HepG2 cells exposed to high glucose,[10],improvement in insulin resistance
SSLFR [peptide from previous studies on rice wine],IC50,[6]; [14],7.73 mM
VLLALVLLR [walnut-derived peptide],Glucose consumption in HepG2 cells compared to the model group,[10],increased glucose consumption
"WLRL [WLRL peptide from soybean protein, positive control]",inhibitory effect toward α-glucosidase,[6]; peptide from soybean protein,good inhibitory effect toward α-glucosidase
YPLPR [YPLPR],IC50,[1],5.31 mM
same,Cytotoxicity (MTT),[2]; [12],no cytotoxicity
insulin: used to establish the insulin resistance model,Cytotoxicity (MTT),[2]; insulin 25.0 µmol/L,not cytotoxic
same,Cellular glucose consumption compared with the group without insulin,[11],significantly reduced
